Experimental data from patent US20220402980A1, “CHROMOGRANIN A-DERIVED PEPTIDES AND USES THEREOF” (OSPEDALE SAN RAFFAELE S.R.L., priority 2019, published 2022).
Read-outs that look alike come from different tables or passages of the source. One block for each compound: values may come before it. Where a SMILES comes first, the peptide text is derived from it. Bridges are numbered along the chain shown (N, C = ends). Triazole bridges read from a SMILES are 1,4-linked. [ ]: non-standard residue; d: D form. Lys(N3) = [N-]=[N+]=NCCCC[C@H](N)C(=O)O; Pra = C#CC[C@H](N)C(=O)O

Key:
in vivo = conditions: mouse, iv, 3 MBq/animal, total radioactivity
αvβ6 = molecular target: T1, αvβ6 (Homo sapiens, UniProt P06756+P18564); experiment: Competitive integrin binding assay (isoDGR/STV-HRP probe), αvβ6-coated plates
T1 construct: recombinant human αvβ6 extracellular domain (R&D Systems); purchased R&D Systems (Minneapolis, Minn.)
Experimental: (§1) Peptide binding was measured by a competitive binding assay using as integrin probe a complex made by a N-terminal acetylated isoDGR peptide biotinylated at the E-amino group of the lysine, acetyl-Ciso[…]-bio (SEQ ID No. 29), and a streptavidin-peroxidase conjugate (called isoDGR/STV-HRP)[43].
(§2) Each mixture was then added to integrin-coated wells and left to incubate for 2 h at room temperature. After washing with 25 mM Tris-HCl, pH 7.4, containing 150 mM sodium chloride, 1 mM magnesium chloride, 1 mM manganese chloride, each well was filled with a chromogenic solution (o-phenylenediamine dihydrochloride) and left to incubate for 30 min at room temperature. The chromogenic reaction was stopped by adding 1 N sulfuric acid. The absorbance at 490 nm was then measured using a microtiterplate reader. Ki values were calculated by non-linear regression analysis of competitive binding data using the “One site - Fit Ki” equation of the GraphPad Prism Software using the Kd values of the probe indicated above.

αvβ8 = αvβ8 (Homo sapiens, UniProt P06756+P26012); experiment: Competitive integrin binding assay (isoDGR/STV-HRP probe), αvβ8-coated plates
Experimental: as §1, §2

BxPC-3 cells = experiment: Binding of peptide-IRDye conjugates to cultured BxPC-3 cells; type: cell-based, human; conditions: BxPC-3 cells; 5a-IRDye 4 nM
Experimental: (§3) B) Binding of the indicated peptide-IRDye conjugates to the various cell lines. Various amounts of conjugates were added to cell monolayers (grown in 96-well microtiter plates) and incubated for 1 h at 37° C., 5% CO2 (see Experimental section). After washing, bound fluorescence was measured using an Odyssey CLx (LI-COR) scanner. A representative image of the scanned plate and binding quantification are reported. Mean ±SE of quadruplicate wells.
(§4) Various amounts of unlabeled peptides were mixed 5a-IRDye (4 nM) and added to the cells. After 1 h, the plates were washed, and the bound fluorescence was quantified as described above (left panels).
(§5) The binding of peptide-IRDye conjugates to BxPC-3, 5637, HUVECs, 4T1, K8484 and DT6606 cells was analyzed as follows. The cells were grown in 96-well clear-bottom black microtiterplates (Corning® cat. 3603, 2-3x10^4 cells/well, plated 48 h before the experiment). After washing twice with 0.9% sodium chloride solution, the cells were incubated with 25 mM Hepes buffer, pH 7.4, containing 150 mM sodium chloride, 1 mM magnesium chloride, 1 mM manganese chloride and 1% BSA (binding buffer) for 5 min. Peptide-IRDye conjugates (0.013-40 nM in binding buffer) were then added to the cells and left to incubate for 1 h at 37° C., 5% CO2. After three washings with binding buffer (5 min each, 200 al/well), the cells were fixed with PBS containing 2% paraformaldehyde and 3% sucrose for 15 min at room temperature. Binding of conjugates to cells was quantified by scanning the plate (filled with PBS, 100 al/well) with the Odyssey CLx (LI-COR) using the following settings: scan intensity, 8.5; scan focus offset 4; scan quality, highest; channel, 800; resolution, 169 pm. Then, the plates were incubated with 5 μg/ml of 4′,6-diamidino-2-phenylindole (DAPI) for 15 min, washed twice with PBS and read with a VICTOR3 plate reader (Perkin Elmer, Waltham, Mass., USA) to quantify the cell number in each well, using the following filters: excitation, 355±40 nm; emission, 460±25 nm (acquisition,1 s).

5637 cells = experiment: Binding of peptide-IRDye conjugates to cultured 5637 cells; type: cell-based, human; conditions: 5637 cells; 5a-IRDye 4 nM
Experimental: as §3, §4, §5

[1] = system: human bladder carcinoma 5637 cells; experiment: 5637 cell viability (PrestoBlue); type: cell-based; conditions: 48 h
Experimental: FIG. 12. Effect of peptides 4 and 5 on human bladder carcinoma 5637 cell viability. 5637 cells were seeded in a 96-well microtiterplate (20,000 cell/well) and cultured for 16 h at 37° C., 5% CO2. The day after the indicated doses of peptide 4 and 5 were added to the cells and left to incubate for additionally 48 h at 37° C., 5% CO2. Cell viability was assessed using the PrestoBlue* cell viability reagent (ThermoFisher) according to the manufacturer's instructions. Viability of the treated cells was normalized to that of untreated cells and is reported as a percentage (mean±SE of triplicate wells).

[2] = Peptide stability in mouse liver microsomal preparations (RP-HPLC); type: in vitro ADME; conditions: C57BL/6, mouse, liver microsomes; 37° C.; read-out: t1/2 in mouse liver microsomes (converted)
Experimental: FIG. 14. Stability of peptides 4 and 5 in murine liver microsomes as determined by RP-HPLC. a) RP-HPLC of 4 and 5 after incubation at 37° C. in murine liver microsomes. Peak 1 corresponds to 4 and 5. The peptides were added to murine liver microsomes (454 - μg/ml, final concentration) and incubated for the indicated time, diluted with an equal volume of 90% acetonitrile containing 0.1% TFA and analyzed onto a LiChrospher C18 column (16 ag). No peptide indicates liver microsome aliquot without the peptide. b) Quantification of Peak 1 area (left panel) and height (right panel) of the indicated peptides. The corresponding half-life is also shown.
The stability of compound 4 and 5 in mouse liver microsomal preparations was assessed by HPLC analysis. To this aim microsomes were prepared as follows: 11 g of mouse liver tissue (C57BL/6 mice) was homogenized in cold PBS supplemented with 0.25 M sucrose (3 ml/g of tissue) using a Potter-Elvehjem homogenizer (10 strokes), followed by additional homogenization using a rotor-stator homogenizer (40 sec). The homogenate was filtered through 70 pm cell-strainers, centrifuged three times to remove insoluble materials (500 x g, 5 min; 3000 x g, 30 min; 110000 x g, 90 min, 4° C.). […] Protein concentration was measured by measuring the absorbance at 280 nm with a NanoDrop spectrophotometer (Thermo Scientific). […]

Compound: CC[C@H](C)[C@H](NC(=O)[C@H](CCCNC(=N)N)NC(=O)[C@H](CC(C)C)NC(=O)[C@H](CC(=O)O)NC(=O)CNC(=O)[C@H](CCCNC(=N)N)NC(=O)[C@H](CC(C)C)NC(=O)[C@@H](NC(=O)[C@H](CCC(=O)O)NC(=O)[C@H](Cc1ccccc1)NC(=O)[C@@H](N)CSC1CC(=O)N(CCNC(=O)CN2CCN(CC(=O)O)CCN(CC(=O)O)CC2)C1=O)[C@@H](C)O)C(=O)N[C@@H](CC(C)C)C(=O)N[C@@H](CO)C(=O)N[C@H](C(=O)N[C@@H](CC(C)C)C(=O)N[C@@H](CCCNC(=N)N)C(=O)N[C@H]1Cc2cn(nn2)CCCC[C@@H](C(=O)N[C@@H](CCCCN)C(=O)N[C@@H](CCC(=O)O)C(=O)N[C@@H](CC(C)C)C(=O)N[C@@H](CCC(N)=O)C(=O)N[C@@H](CC(=O)O)C(N)=O)NC(=O)[C@H](CC(C)C)NC(=O)[C@H](CC(N)=O)NC(=O)[C@H](CCC(N)=O)NC1=O)[C@@H](C)CC (some centres unmarked) [1^8F-NOTA-5a]
tissue uptake at 2 h (in vivo; accumulation in intestine, femur, liver and stomach): ~2 %ID/g | tissue uptake at 2 h (in vivo; accumulation in the lungs): 1.2 %ID/g | tissue uptake at 2 h (in vivo; radiotracer levels in the kidneys): ~80 %ID/g | tissue uptake at 2 h (in vivo; uptake in brain, heart, spleen, blood, muscle): < 0.5 %ID/g

Ki (αvβ6; Table 3b, mean ± SE, read-out: Binding affinity for αvβ6 Ki): > 50000 nM | Ki (αvβ8; Table 3b, mean ± SE, read-out: Binding affinity for αvβ8 Ki): > 50000 nM
Compound: CC[C@H](C)[C@H](NC(=O)[C@H](CCCNC(=N)N)NC(=O)[C@H](CCC(=O)O)NC(=O)[C@H](CCC(=O)O)NC(=O)CNC(=O)[C@H](CCCNC(=N)N)NC(=O)[C@H](CC(C)C)NC(=O)[C@@H](NC(=O)[C@H](CCC(=O)O)NC(=O)[C@H](Cc1ccccc1)NC(=O)[C@@H](N)CS)[C@@H](C)O)C(=O)N[C@@H](CC(C)C)C(=O)N[C@@H](CO)C(=O)N[C@H](C(=O)N[C@@H](CC(C)C)C(=O)N[C@@H](CCCNC(=N)N)C(=O)N[C@@H](Cc1c[nH]cn1)C(=O)N[C@@H](CCC(N)=O)C(=O)N[C@@H](CC(N)=O)C(=O)N[C@@H](CC(C)C)C(=O)N[C@@H](CC(C)C)C(=O)N[C@@H](CCCCN)C(=O)N[C@@H](CCC(=O)O)C(=O)N[C@@H](CC(C)C)C(=O)N[C@@H](CCC(N)=O)C(=O)N[C@@H](CC(=O)O)C(=O)O)[C@@H](C)CC [peptide 2a, reference compound] (H-CFETLRGEERILSILRHQNLLKELQD-OH; N-terminus and C-terminus assumed)
inhibition of 5a-IRDye binding by excess of free peptide (BxPC-3 cells): not | inhibition of 5a-IRDye binding by excess of free peptide (5637 cells): not

Compound: CC[C@H](C)[C@H](NC(=O)[C@H](CCCNC(=N)N)NC(=O)[C@H](CC(C)C)NC(=O)[C@H](CC(=O)O)NC(=O)CNC(=O)[C@H](CCCNC(=N)N)NC(=O)[C@H](CC(C)C)NC(=O)[C@@H](NC(=O)[C@H](CCC(=O)O)NC(=O)[C@H](Cc1ccccc1)NC(C)=O)[C@@H](C)O)C(=O)N[C@@H](CC(C)C)C(=O)N[C@@H](CO)C(=O)N[C@H](C(=O)N[C@@H](CC(C)C)C(=O)N[C@@H](CCCNC(=N)N)C(=O)N[C@H]1Cc2cn(nn2)CCCC[C@@H](C(=O)N[C@@H](CCCCN)C(=O)N[C@@H](CCC(=O)O)C(=O)N[C@@H](CC(C)C)C(=O)N[C@@H](CCC(N)=O)C(=O)N[C@@H](CC(=O)O)C(N)=O)NC(=O)[C@H](CC(C)C)NC(=O)[C@H](CC(N)=O)NC(=O)[C@H](CCC(N)=O)NC1=O)[C@@H](C)CC [peptide 5, FETLRGDLRILSILRX1QNLX2KELQD] (Ac-FETLRGDLRILSILR[Pra]QNL[Lys(N3)]KELQD-NH2; triazole 16-20)
Ki (αvβ6; Table 3a and text, ± standard error of the mean, read-out: Ki αvβ6): 0.6 ± 0.1 nM | Ki (αvβ8; Table 3a and text, ± standard error of the mean, read-out: Ki αvβ8): 3.2 ± 1.2 nM | cytotoxicity in vitro [1]: not cytotoxic | half-life at 454 μg/ml [2]: 4.3 h

Compound: CC[C@H](C)[C@H](NC(=O)[C@H](CCCNC(=N)N)NC(=O)[C@H](CC(C)C)NC(=O)[C@H](CC(=O)O)NC(=O)CNC(=O)[C@H](CCCNC(=N)N)NC(=O)[C@H](CC(C)C)NC(=O)[C@@H](NC(=O)[C@H](CCC(=O)O)NC(=O)[C@H](Cc1ccccc1)NC(=O)[C@@H](N)CS)[C@@H](C)O)C(=O)N[C@@H](CC(C)C)C(=O)N[C@@H](CO)C(=O)N[C@H](C(=O)N[C@@H](CC(C)C)C(=O)N[C@@H](CCCNC(=N)N)C(=O)N[C@H]1Cc2cn(nn2)CCCC[C@@H](C(=O)N[C@@H](CCCCN)C(=O)N[C@@H](CCC(=O)O)C(=O)N[C@@H](CC(C)C)C(=O)N[C@@H](CCC(N)=O)C(=O)N[C@@H](CC(=O)O)C(N)=O)NC(=O)[C@H](CC(C)C)NC(=O)[C@H](CC(N)=O)NC(=O)[C@H](CCC(N)=O)NC1=O)[C@@H](C)CC [peptide 5a, CFETLRGDLRILSILRX1QNLX2KELQD]
inhibition of 5a-IRDye binding by excess of free peptide (BxPC-3 cells): significantly inhibited | inhibition of 5a-IRDye binding by excess of free peptide (5637 cells): significantly inhibited
